Measurements: US4985428A, “Isoxazoles with nootropic activity” (Zambon Group S.p.A., priority 1987, dated 1991)
Read-outs that look alike come from different tables or passages of the source.

Test system: electroshock (ECS) amnesia in rat
Assay: electroshock (ECS) amnesia test in rat
Type: in vivo
Details: male rats, dose improving retention time by 50% of Δt vs ECS control
Description: The compounds of formula I are active on central nervous system and they can be used in pharmaceutical field as nootropics. By the electroshock (ECS) amnesia test, described in example 8, in rat the pharmacological activity of the compounds object of the present invention was evaluated in comparison with the activity of Piracetam and Aniracetam. Pharmacodynamic evaluation: electroshock (ECS) amnesia test in rat Male rats weighing 130-150 g and fasting for at least 12 hours before the beginning of the test were used. The test consisted in two experiments with a resting interval of 24 hours between them. First experiment: training session The animals were trained to associate the passage from a light partition to a dark one, in a suitable box, with a noxious stimulation that is an electric stimulation through an electrified grid (foot-shock: 1 mA for 10 seconds). Second experiment: retention session The ability of the animals to remember was evaluated as the time utilized to repeat the passage through the partitions (retention time). Evaluation of the retention time in control groups of animals The test was carried out first on two groups of animals as control. […] Fixing 60 seconds as time-limit for performing the second experiment, the average time (retention time) utilized for the passage was 54 seconds for the control and 32 seconds for the ECS control. Evaluation of the retention time in groups of treated animals Groups of 20 rats underwent the training session, the treatment for inducing amnesia and the retention session after administration of the compounds object of the present invention and of the reference compounds, Piracetam and Aniracetam. The administration was carried out 30 minutes before the training session in case of intraperitoneal administration (i.p.) and 60 minutes before in case of administration by oral route. At least three doses each compound and each administration route were tested. The difference between the retention time of the control and the retention time of the ECS control was considered as reference (Δt) and it was fixed, as percentage, equal to 100. In the groups of animals which were treated and underwent ECS the activity against amnesia of the compounds object of the present invention was expressed as ED50 that is as the dose of compound able to give an improvement of the retention time equal to 50% of the reference interval (Δt) in comparison with the ECS control.

[1] = ip, intraperitoneal, 30 minutes before training session, read-out: ED50 i.p.
[2] = oral route, 60 minutes before training session, read-out: ED50 os

Row | SMILES | ED50 [1] | ED50 [2]
1 | COc1ccc(C(=O)N2CCCC2=O)cc1 [Aniracetam, 1-(4-methoxy-benzoyl)-2-pyrrolidinone, reference compound] | 353 µmol/kg | 1110 µmol/kg
2 | O=C(O)CCCNC(=O)c1cc(Br)no1 [Compound 1, N-(3-bromo-5-isoxazolecarbonyl)-4-aminobutyric acid] | 102 µmol/kg | 290 µmol/kg
3 | O=C(O)CCCNC(=O)c1cc(Cl)no1 [Compound 2, N-(3-chloro-5-isoxazolecarbonyl)-4-aminobutyric acid] | 160 µmol/kg | 260 µmol/kg
4 | COc1cc(C(=O)NCCCC(=O)O)on1 [Compound 3, N-(3-methoxy-5-isoxazolecarbonyl)-4-aminobutyric acid] | 276 µmol/kg | 868 µmol/kg
5 | Cc1cc(C(=O)NCCCC(=O)O)on1 [Compound 4, N-(3-methyl-5-isoxazolecarbonyl)-4-aminobutyric acid] | 202 µmol/kg | 383 µmol/kg
6 | O=C(NCCCC(=O)N1CCCC1)c1cc(Br)no1 [Compound 8, N-[4-oxo-4-(1-pyrrolidinyl)butyl]-3-bromo-5-isoxazolecarboxamide] | 25 µmol/kg | 80 µmol/kg
7 | CCOC(=O)CNC(=O)CCCNC(=O)c1cc(Br)no1 [Compound 12, Ethyl N-[N-(3-bromo-5-isoxazolecarbonyl)-4-aminobutyroyl]glicinate] | 171 µmol/kg | 1000 µmol/kg
8 | O=C(O)CCCNC(=O)CCCNC(=O)c1cc(Br)no1 [Compound 19, N-[N-(3-bromo-5-isoxazolecarbonyl)-4-aminobutyroyl]-4-aminobutyric acid] | – | 261 µmol/kg
9 | O=C(NCCCC(=O)N1CCCC1=O)c1cc(Br)no1 [Compound 21, 1-[N-(3-bromo-5-isoxazolecarbonyl)-4-aminobutyroyl]-2-pyrrolidinone] | – | 254 µmol/kg
10 | NC(=O)CN1CCCC1=O [Piracetam, 2-pyrrolidinoneacetamide, reference compound] | 329 µmol/kg | 1550 µmol/kg
